Laboratory results published in patent publication US6384042B2, “Systemic use of 5-HT3 receptor antagonists against rheumatic inflammatory processes” (priority 1999, dated 2002).

How the values were obtained:
Format in all cases: in vivo
[1] = tested on: patient exhibiting rheumatoid arthritis and severe consequential synovial inflammation; test: Treatment of synovial inflammation/synovitis consequent to inflammatory processes, trial on a patient (Example 1); settings: for outcome of previous treatment: same rheumatoid arthritis patient, treatment before trial entry
Method: The subject is treated for 5 days sequentially with tropisetron administered at a dose of 2 mg/day i.v. Treatment results in amelioration of the synovial inflammation, a reduction of stiffness in the morning and remission from the formation of effusion in the kneejoint.

[2] = tested on: patient exhibiting marked dermatomyositis with bioptically verified vasculitis; test: Treatment of dermatomyositis/vasculitis, patient (Example 3)
[3] = tested on: patient with meniscus damage and arthritic change leading to synovial inflammation with knee joint effusion; test: Treatment of synovial inflammation with knee joint effusion, patient (Example 2)
Method: Two 2 mg doses of tropisetron are administered i.v. over a period of 17 days with 15 injections, one each day with a 2 days pause in therapy. […] The improvement in condition continues over a further 7 days observation following completion of therapy.

[4] = 3 injections i.v., each 2 mg, observed already after the first injection
[5] = rheumatoid arthritis patient, 2 mg/day i.v. for 5 days

Structure (SMILES)	outcome of previous treatment [1]	massive reddening of the skin [2, 4]	pain symptoms [2, 4]	complaints in follow-up ([2]; over a period of one week following)	formation of effusion in the knee joint [1, 5]	glucocorticoid requirements [1, 5]	measure parameters for inflammation [1, 5]	stiffness in the morning [1, 5]	synovial inflammation [1, 5]	movement of the knee joint ([3]; 2 mg i.v., 15 injections over 17 days)	pain ([3]; 24 hours after the first i.v. injection of 2 mg)	symptoms ([3]; following continuation of injections (2 mg i.v., 15 injections over 17 days))	duration of continued improvement in condition after completion of therapy ([3]; observation following completion of therapy) [days]	exudation from the knee joint ([3]; within 8 days, without any other medication)
Cn1cnc([N+](=O)[O-])c1Sc1ncnc2[nH]cnc12 [azathioprin]	largely unsuccessfully													
CN(Cc1cnc2nc(N)nc(N)c2n1)c1ccc(C(=O)N[C@@H](CCC(=O)O)C(=O)O)cc1 [methotrexate]	largely unsuccessfully													
CN1[C@@H]2CC[C@H]1C[C@@H](OC(=O)c1c[nH]c3ccccc13)C2 [tropisetron, Indol-3-yl-carboxylic acid-endo-8-methyl-8-aza-bicyclo[3,2,1]-oct-3-yl-ester]		Virtually complete remission	clear reduction	substantially complaint free	remission	marked reduction	reduction	reduction	amelioration	clearly improved	significant improvement	virtually free of symptoms	7	completely inhibited
